Experimental data: article PMC5218480 (PLoS ONE, 2017)

Test system: MV-4-11 cells
Experiment: Gene expression microarray analysis (Affymetrix PrimeView) and GSEA
Assay type: cell-based, human
Design: RFU PODN (11730768_x_at) / Fold change /veh PODN (11730768_x_at) / RFU LINC00158 (11744669_a_at) / Fold change /veh LINC00158 (11744669_a_at) / RFU DUSP10 (11751237_a_at) / Fold change /veh DUSP10 (11751237_a_at) / RFU ID3 (11757404_x_at) / Fold change /veh ID3 (11757404_x_at) / RFU PLEKHG5 (11737974_s_at) / Fold change /veh PLEKHG5 (11737974_s_at) / RFU LRRC4B (11730491_at) / Fold change /veh LRRC4B (11730491_at) / RFU GIMAP4 (11747438_a_at) / Fold change /veh GIMAP4 (11747438_a_at) / RFU KRT8 (11758183_x_at) / Fold change /veh KRT8 (11758183_x_at) / RFU CNN1 (11734310_a_at) / Fold change /veh CNN1 (11734310_a_at) / RFU VPS37D (11726825_at) / Fold change /veh VPS37D (11726825_at) / RFU C10orf10 (11716522_x_at) / Fold change /veh C10orf10 (11716522_x_at) / RFU KIR2DL2 /// KIR2DL4 /// KIR2DL5A /// KIR2DL5B /// KIR2DS1 /// KIR2DS2 /// KIR2DS3 /// KIR2DS4 /// KIR3DL3 /// KIR3DL3 /// KIR3DS1 (11738374_at) / Fold change /veh KIR2DL2 /// KIR2DL4 /// KIR2DL5A /// KIR2DL5B /// KIR2DS1 /// KIR2DS2 /// KIR2DS3 /// KIR2DS4 /// KIR3DL3 /// KIR3DL3 /// KIR3DS1 (11738374_at) / RFU C1QL1 (11718748_at) / Fold change /veh C1QL1 (11718748_at) / RFU TMPRSS4 (11747572_a_at) / Fold change /veh TMPRSS4 (11747572_a_at) / RFU HAMP (11756126_x_at) / Fold change /veh HAMP (11756126_x_at) / RFU RNFT2 (11725882_a_at) / Fold change /veh RNFT2 (11725882_a_at) / RFU NR4A2 (11747474_a_at) / Fold change /veh NR4A2 (11747474_a_at) / RFU ABCC12 (11746883_a_at) / Fold change /veh ABCC12 (11746883_a_at) / RFU TMEM136 (11760407_x_at) / Fold change /veh TMEM136 (11760407_x_at) / RFU CLDN22 /// WWC2 (11732394_at) / Fold change /veh CLDN22 /// WWC2 (11732394_at) / RFU HLA-DPB1 (11760878_x_at) / Fold change /veh HLA-DPB1 (11760878_x_at) / RFU SPINT1 (11716480_a_at) / Fold change /veh SPINT1 (11716480_a_at) / RFU GAP43 (11754022_s_at) / Fold change /veh GAP43 (11754022_s_at) / RFU A4GNT (11735810_at) / Fold change /veh A4GNT (11735810_at) / RFU PRB3 (11715151_x_at) / Fold change /veh PRB3 (11715151_x_at) / RFU TUBB4B (11761932_at) / Fold change /veh TUBB4B (11761932_at) / RFU CAPN14 (11732068_a_at) / Fold change /veh CAPN14 (11732068_a_at) / RFU TMCC2 (11721928_a_at) / Fold change /veh TMCC2 (11721928_a_at) / RFU IRGQ (11745062_a_at) / Fold change /veh IRGQ (11745062_a_at) / RFU FAM174B (11720279_a_at) / Fold change /veh FAM174B (11720279_a_at) / RFU TMPRSS4 (11748680_a_at) / Fold change /veh TMPRSS4 (11748680_a_at) / RFU FAM212B (11763350_a_at) / Fold change /veh FAM212B (11763350_a_at) / RFU PLEKHG5 (11743358_a_at) / Fold change /veh PLEKHG5 (11743358_a_at) / RFU ZSCAN30 (11745921_a_at) / Fold change /veh ZSCAN30 (11745921_a_at) / RFU CMKLR1 (11741424_a_at) / Fold change /veh CMKLR1 (11741424_a_at) / RFU LOC101060620 /// MAPK8IP1 (11723275_at) / Fold change /veh LOC101060620 /// MAPK8IP1 (11723275_at) / RFU SPTSSB (11747773_x_at) / Fold change /veh SPTSSB (11747773_x_at) / RFU PRSS12 (11739890_at) / Fold change /veh PRSS12 (11739890_at) / RFU BIN1 (11741810_x_at) / Fold change /veh BIN1 (11741810_x_at) / RFU WNT11 (11732464_a_at) / Fold change /veh WNT11 (11732464_a_at) / RFU C10orf10 (11716521_a_at) / Fold change /veh C10orf10 (11716521_a_at) / RFU C5orf56 (11738089_at) / Fold change /veh C5orf56 (11738089_at) / RFU CYB561 (11721691_x_at) / Fold change /veh CYB561 (11721691_x_at) / RFU ANKRD19P (11752326_a_at) / Fold change /veh ANKRD19P (11752326_a_at) / RFU OR2T12 /// OR2T33 /// OR2T8 (11738714_s_at) / Fold change /veh OR2T12 /// OR2T33 /// OR2T8 (11738714_s_at) / RFU VCAN (11748164_a_at) / Fold change /veh VCAN (11748164_a_at) / RFU JSRP1 (11732532_at) / Fold change /veh JSRP1 (11732532_at) / RFU KRTAP10-11 (11738290_x_at) / Fold change /veh KRTAP10-11 (11738290_x_at) / RFU MYO3A (11730013_a_at) / Fold change /veh MYO3A (11730013_a_at) / RFU EBF3 (11725865_a_at) / Fold change /veh EBF3 (11725865_a_at) / RFU CAMK2N1 (11719241_x_at) / Fold change /veh CAMK2N1 (11719241_x_at) / RFU C5orf56 (11738088_a_at) / Fold change /veh C5orf56 (11738088_a_at) / RFU OLFML3 (11715873_a_at) / Fold change /veh OLFML3 (11715873_a_at) / RFU LOC100653217 /// NTM (11731650_a_at) / Fold change /veh LOC100653217 /// NTM (11731650_a_at) / RFU MAPK11 (11762145_a_at) / Fold change /veh MAPK11 (11762145_a_at) / RFU FIZ1 (11724087_x_at) / Fold change /veh FIZ1 (11724087_x_at) / RFU OASL (11726364_x_at) / Fold change /veh OASL (11726364_x_at) / RFU SOX15 (11748057_x_at) / Fold change /veh SOX15 (11748057_x_at) / RFU CD79A (11719716_a_at) / Fold change /veh CD79A (11719716_a_at) / RFU HIST1H1D (11736915_at) / Fold change /veh HIST1H1D (11736915_at) / RFU CASKIN2 (11723855_a_at) / Fold change /veh CASKIN2 (11723855_a_at) / RFU LOC730098 (11760151_x_at) / Fold change /veh LOC730098 (11760151_x_at) / RFU OR4N2 (11742367_at) / Fold change /veh OR4N2 (11742367_at) / RFU PRRT2 (11749266_a_at) / Fold change /veh PRRT2 (11749266_a_at) / RFU SNX32 (11753110_a_at) / Fold change /veh SNX32 (11753110_a_at) / RFU CDHR5 (11726645_a_at) / Fold change /veh CDHR5 (11726645_a_at) / RFU RCAN1 (11760418_a_at) / Fold change /veh RCAN1 (11760418_a_at) / RFU FAM167A (11723789_a_at) / Fold change /veh FAM167A (11723789_a_at) / RFU FAM26E (11764081_at) / Fold change /veh FAM26E (11764081_at) / RFU ISYNA1 (11749810_s_at) / Fold change /veh ISYNA1 (11749810_s_at) / RFU ACY1 (11761880_at) / Fold change /veh ACY1 (11761880_at) / RFU 11764098_at / Fold change /veh 11764098_at / RFU SAMD14 (11745864_x_at) / Fold change /veh SAMD14 (11745864_x_at) / RFU NPB (11741838_a_at) / Fold change /veh NPB (11741838_a_at) / RFU TMPRSS6 (11731388_a_at) / Fold change /veh TMPRSS6 (11731388_a_at) / RFU KRTAP10-2 (11738614_at) / Fold change /veh KRTAP10-2 (11738614_at) / RFU ARHGAP8 /// PRR5-ARHGAP8 (11727945_x_at) / Fold change /veh ARHGAP8 /// PRR5-ARHGAP8 (11727945_x_at) / RFU KRTAP5-7 /// NADSYN1 (11734609_at) / Fold change /veh KRTAP5-7 /// NADSYN1 (11734609_at) / RFU RASL12 (11751679_a_at) / Fold change /veh RASL12 (11751679_a_at) / RFU CDKN2B (11736163_a_at) / Fold change /veh CDKN2B (11736163_a_at) / RFU PRF1 (11729649_at) / Fold change /veh PRF1 (11729649_at) / RFU, ZNF638 /// ZNF638-IT1 / Fold change vs veh, ZNF638 /// ZNF638-IT1 / RFU, PANK3 / Fold change vs veh, PANK3 / RFU, SH3YL1 / Fold change vs veh, SH3YL1 / RFU, ZEB2 / Fold change vs veh, ZEB2 / RFU, NRIP1 / Fold change vs veh, NRIP1 / RFU, PTTG1IP / Fold change vs veh, PTTG1IP / RFU, CAPN2 / Fold change vs veh, CAPN2 / RFU, MED14 / Fold change vs veh, MED14 / RFU, SNORA58 / Fold change vs veh, SNORA58 / RFU, C1orf63 / Fold change vs veh, C1orf63 / RFU, LRRFIP1 / Fold change vs veh, LRRFIP1 / RFU, NDUFAF7 / Fold change vs veh, NDUFAF7 / RFU, SLC12A2 / Fold change vs veh, SLC12A2 / RFU, IBTK / Fold change vs veh, IBTK / RFU, ESF1 / Fold change vs veh, ESF1 / Fold change vs veh, TMEM50B / RFU, TAOK1 / Fold change vs veh, TAOK1 / RFU, ACBD3 / Fold change vs veh, ACBD3 / RFU, TMA16 / Fold change vs veh, TMA16 / RFU, RWDD3 / Fold change vs veh, RWDD3 / RFU, BCAT1 / Fold change vs veh, BCAT1 / RFU, EDEM3 / Fold change vs veh, EDEM3 / RFU, TMEM33 / Fold change vs veh, TMEM33 / RFU, WDR75 / Fold change vs veh, WDR75 / RFU, AHCTF1 / Fold change vs veh, AHCTF1 / RFU, TFRC / Fold change vs veh, TFRC / RFU, ZDHHC17 / Fold change vs veh, ZDHHC17 / RFU, NOM1 / Fold change vs veh, NOM1 / RFU, ARL8B / Fold change vs veh, ARL8B / RFU, ZBTB11 / Fold change vs veh, ZBTB11 / RFU, TAMM41 / Fold change vs veh, TAMM41 / RFU, KIAA1704 /// LOC100996395 / Fold change vs veh, KIAA1704 /// LOC100996395 / RFU, ING1 / Fold change vs veh, ING1 / RFU, TRMT61B / Fold change vs veh, TRMT61B / RFU, FUBP3 / Fold change vs veh, FUBP3 / RFU, TP53 / Fold change vs veh, TP53 / RFU, TNKS2 / Fold change vs veh, TNKS2 / RFU, ZFP14 / Fold change vs veh, ZFP14 / RFU, ACTR2 / Fold change vs veh, ACTR2 / RFU, PPP3R1 / Fold change vs veh, PPP3R1 / RFU, PIK3R1 / Fold change vs veh, PIK3R1 / RFU, HNRNPA1 / Fold change vs veh, HNRNPA1 / RFU, RNF170 / Fold change vs veh, RNF170 / RFU, ZNF28 / Fold change vs veh, ZNF28 / RFU, RNGTT / Fold change vs veh, RNGTT / RFU, OGT / Fold change vs veh, OGT / RFU, BRD1 / Fold change vs veh, BRD1 / RFU, MARS / Fold change vs veh, MARS / RFU, ZNF655 / Fold change vs veh, ZNF655 / RFU, FAHD1 / Fold change vs veh, FAHD1 / RFU, BDP1 / Fold change vs veh, BDP1 / RFU, LRRCC1 / Fold change vs veh, LRRCC1 / RFU, ARID1A / Fold change vs veh, ARID1A / RFU, ZNF146 / Fold change vs veh, ZNF146 / RFU, ZNF330 / Fold change vs veh, ZNF330 / RFU, GPN3 / Fold change vs veh, GPN3 / RFU, C9orf123 / Fold change vs veh, C9orf123 / RFU, N4BP2L2 / Fold change vs veh, N4BP2L2 / RFU, ARFIP1 / Fold change vs veh, ARFIP1 / RFU, FAM179B / Fold change vs veh, FAM179B / RFU, BCL10 / Fold change vs veh, BCL10 / RFU, UHRF1BP1L / Fold change vs veh, UHRF1BP1L / RFU, BET1 / Fold change vs veh, BET1 / RFU, CNOT2 / Fold change vs veh, CNOT2 / RFU, ZNF268 / Fold change vs veh, ZNF268 / Fold change vs veh, ZNF507 / RFU, DGCR2 / Fold change vs veh, DGCR2 / RFU, WDSUB1 / Fold change vs veh, WDSUB1 / Fold change vs veh, HSP90B1 /// MIR3652 / RFU, ADSS / Fold change vs veh, ADSS / RFU, GK / Fold change vs veh, GK / RFU, ZNF148 / Fold change vs veh, ZNF148 / RFU, TAF9 / Fold change vs veh, TAF9 / RFU, SLC1A5 / Fold change vs veh, SLC1A5 / RFU, SLMO2 / Fold change vs veh, SLMO2 / RFU, ABCC4 / Fold change vs veh, ABCC4 / RFU, LOC101060439 /// RAP1B / Fold change vs veh, LOC101060439 /// RAP1B / RFU, RFX7 / Fold change vs veh, RFX7 / RFU, GTPBP10 / Fold change vs veh, GTPBP10 / RFU, CNEP1R1 / Fold change vs veh, CNEP1R1 / RFU, BIVM-ERCC5 /// ERCC5 / Fold change vs veh, BIVM-ERCC5 /// ERCC5 / RFU, ILF3 / Fold change vs veh, ILF3 / RFU 11762660_at / Fold change /veh 11762660_at / RFU VCAN (11757783_s_at) / Fold change /veh VCAN (11757783_s_at) / RFU DDX43 (11728927_at) / Fold change /veh DDX43 (11728927_at) / RFU KRT8 (11758188_x_at) / Fold change /veh KRT8 (11758188_x_at) / RFU NKD1 (11759106_at) / Fold change /veh NKD1 (11759106_at) / RFU SRD5A1 (11742802_a_at) / Fold change /veh SRD5A1 (11742802_a_at) / RFU TPSAB1 /// TPSB2 (11721975_s_at) / Fold change /veh TPSAB1 /// TPSB2 (11721975_s_at) / RFU GSTM3 (11746129_a_at) / Fold change /veh GSTM3 (11746129_a_at) / RFU IL23R (11737362_x_at) / Fold change /veh IL23R (11737362_x_at) / RFU TMEM51 (11727254_a_at) / Fold change /veh TMEM51 (11727254_a_at) / RFU PIWIL2 (11732686_x_at) / Fold change /veh PIWIL2 (11732686_x_at) / RFU ORM1 (11744905_x_at) / Fold change /veh ORM1 (11744905_x_at) / RFU CCDC152 (11743942_at) / Fold change /veh CCDC152 (11743942_at) / RFU ECM1 (11717891_a_at) / Fold change /veh ECM1 (11717891_a_at) / RFU IL23R (11748794_a_at) / Fold change /veh IL23R (11748794_a_at) / RFU TNFAIP8L3 (11732012_x_at) / Fold change /veh TNFAIP8L3 (11732012_x_at) / RFU MBOAT4 (11741988_at) / Fold change /veh MBOAT4 (11741988_at) / RFU 11764193_at / Fold change /veh 11764193_at / RFU TMEM53 (11763286_at) / Fold change /veh TMEM53 (11763286_at) / RFU MAGEB2 (11727129_at) / Fold change /veh MAGEB2 (11727129_at) / RFU TMEM200A (11744735_a_at) / Fold change /veh TMEM200A (11744735_a_at) / RFU CCDC152 (11751479_a_at) / Fold change /veh CCDC152 (11751479_a_at) / RFU FAM211A (11726209_a_at) / Fold change /veh FAM211A (11726209_a_at) / RFU RGS16 (11746705_a_at) / Fold change /veh RGS16 (11746705_a_at) / RFU VCAN (11755009_s_at) / Fold change /veh VCAN (11755009_s_at) / RFU RHOB (11743442_s_at) / Fold change /veh RHOB (11743442_s_at) / RFU RGS16 (11720943_a_at) / Fold change /veh RGS16 (11720943_a_at) / RFU RGS16 (11720944_at) / Fold change /veh RGS16 (11720944_at) / RFU, VPS4B / Fold change vs veh, VPS4B / RFU, CREB1 / Fold change vs veh, CREB1 / RFU, DNAJC13 / Fold change vs veh, DNAJC13 / RFU, GNAQ / Fold change vs veh, GNAQ / RFU, CDK5R1 / Fold change vs veh, CDK5R1 / RFU, ZRANB3 / Fold change vs veh, ZRANB3 / RFU, CUL4A / Fold change vs veh, CUL4A / RFU, CCNY / Fold change vs veh, CCNY / RFU, UFL1 / Fold change vs veh, UFL1 / RFU, COG3 / Fold change vs veh, COG3 / RFU, DIAPH2 / Fold change vs veh, DIAPH2 / RFU, SKA2 / Fold change vs veh, SKA2 / RFU, AFF3 / Fold change vs veh, AFF3 / RFU, LMF1 / Fold change vs veh, LMF1 / RFU, IPO11 / Fold change vs veh, IPO11 / RFU, DFFB / Fold change vs veh, DFFB / RFU, FOXP1 / Fold change vs veh, FOXP1 / RFU, CARD8 / Fold change vs veh, CARD8 / RFU, STRN3 / Fold change vs veh, STRN3 / RFU, ADK / Fold change vs veh, ADK / RFU, RASSF2 / Fold change vs veh, RASSF2 / RFU, WIPF1 / Fold change vs veh, WIPF1 / RFU, LARP1B / Fold change vs veh, LARP1B / RFU, RASA1 / Fold change vs veh, RASA1 / RFU, RB1 / Fold change vs veh, RB1 / RFU, PPFIA1 / Fold change vs veh, PPFIA1 / RFU, MAT2A / Fold change vs veh, MAT2A / RFU, CCT5 / Fold change vs veh, CCT5 / RFU, WDR92 / Fold change vs veh, WDR92 / RFU, CUX1 / Fold change vs veh, CUX1 / RFU, TTC7A / Fold change vs veh, TTC7A / RFU, TMEM135 / Fold change vs veh, TMEM135 / RFU, DEPTOR / Fold change vs veh, DEPTOR / RFU, CPM / Fold change vs veh, CPM / RFU, DNAJB6 / Fold change vs veh, DNAJB6 / RFU, CACNA2D3 / Fold change vs veh, CACNA2D3 / RFU, DTX4 / Fold change vs veh, DTX4 / RFU, TFCP2 / Fold change vs veh, TFCP2 / RFU, GMCL1 /// GMCL1P1 / Fold change vs veh, GMCL1 /// GMCL1P1 / RFU, AEBP2 / Fold change vs veh, AEBP2 / RFU, SNHG1 /// SNORD22 /// SNORD25 /// SNORD26 /// SNORD27 /// SNORD28 /// SNORD29 /// SNORD31 / Fold change vs veh, SNHG1 /// SNORD22 /// SNORD25 /// SNORD26 /// SNORD27 /// SNORD28 /// SNORD29 /// SNORD31 / Fold change (Aza/veh), C12orf56 (ProbeSet 11735607_a_at) / Fold change (ACY-1035/veh), C12orf56 (ProbeSet 11735607_a_at) / Fold change (Aza/veh), FGFR1OP (ProbeSet 11751329_s_at) / Fold change (ACY-1035/veh), FGFR1OP (ProbeSet 11751329_s_at) / Fold change (Aza/veh), VPS36 (ProbeSet 11739960_a_at) / Fold change (ACY-1035/veh), VPS36 (ProbeSet 11739960_a_at) / RFU SYPL1 (11715823_x_at) / Fold change /veh SYPL1 (11715823_x_at) / RFU IGFBP7 (11715501_s_at) / Fold change /veh IGFBP7 (11715501_s_at) / RFU REEP3 (11722064_at) / Fold change /veh REEP3 (11722064_at) / RFU IGLL1 (11728026_x_at) / Fold change /veh IGLL1 (11728026_x_at): dose or concentration left out as unconfirmed
Conditions: ProbeSet 11749477_a_at; LIST B

Nc1ccc(-c2cccs2)cc1NC(=O)c1ccc2c(c1)cc(C1CC1)n2CCN1CCOCC1 [ACY-1035]
Fold change vs veh, EDEM3: 0.94
